ChEMBL document CHEMBL1201862, “PubChem BioAssay data set” (2004)
Calls of active or inactive are those of the source.

Experiments:
Streptokinase A = biological target: T1, Streptokinase A (Streptococcus pyogenes serotype M1, UniProt P10520); experiment: S. pyogenes streptokinase expression inhibitors, potency, dose response, plasminogen activation absorbance, OD405 (AID 1914); format: functional, Streptococcus pyogenes M1 GAS;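 note: secreted streptokinase activity via plasminogen activation per viability signal from cell pellet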
T1 sequence (P10520 whole entry): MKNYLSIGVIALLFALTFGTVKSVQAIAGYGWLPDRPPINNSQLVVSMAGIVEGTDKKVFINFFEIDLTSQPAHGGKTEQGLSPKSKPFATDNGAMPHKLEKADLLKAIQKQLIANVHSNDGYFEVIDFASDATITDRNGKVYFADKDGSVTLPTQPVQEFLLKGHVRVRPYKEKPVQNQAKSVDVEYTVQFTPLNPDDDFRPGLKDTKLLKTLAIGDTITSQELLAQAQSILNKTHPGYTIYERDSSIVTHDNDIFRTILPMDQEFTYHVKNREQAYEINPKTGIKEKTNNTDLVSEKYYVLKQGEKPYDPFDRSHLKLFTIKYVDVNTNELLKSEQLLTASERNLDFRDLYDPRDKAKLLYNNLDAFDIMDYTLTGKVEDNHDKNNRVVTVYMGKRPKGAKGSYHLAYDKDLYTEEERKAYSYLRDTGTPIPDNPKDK

[1] = system: Streptococcus sp. 'group A'; experiment: growth inhibition of control SK(-) GAS strain, dose response, counter-screen for streptokinase expression inhibitor project, luminescence, kanamycin, BacTiterGlo, confirmation (AID 1900); format: functional, organism-based
Streptococcus = experiment: Group A Streptococcus viability loss, dose response, counter-screen for streptokinase expression inhibitor project, luminescence, BacTiterGlo (AID 1915); format: functional, organism-based;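 note: potency for reduction of bacterial viability or growth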
[2] = biological target: T2, Calpain-2 catalytic subunit (Sus scrofa, UniProt P43367); experiment: pig calpain II inhibitor potency, dose response, biochemical, fluorogenic peptide substrate (AID 1420); format: functional
T2 sequence (P43367 whole entry): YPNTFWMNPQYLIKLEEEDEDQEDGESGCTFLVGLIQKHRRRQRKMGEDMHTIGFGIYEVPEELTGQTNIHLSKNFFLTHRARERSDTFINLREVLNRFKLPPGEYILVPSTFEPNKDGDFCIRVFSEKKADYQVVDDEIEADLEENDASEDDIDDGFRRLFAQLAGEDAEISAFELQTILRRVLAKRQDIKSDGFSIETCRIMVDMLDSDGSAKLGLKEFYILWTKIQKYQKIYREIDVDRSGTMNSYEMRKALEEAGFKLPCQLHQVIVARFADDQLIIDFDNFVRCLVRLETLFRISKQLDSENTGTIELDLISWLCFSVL

Fatty acid synthase [3] = biological target: T3, Fatty acid synthase (Homo sapiens, UniProt P49327); experiment: FAS thioesterase domain inhibitors, dose response, biochemical, endpoint fluorescence intensity, uHTS hits (AID 624327); format: functional;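 note: fluorescence from hydrolysis of an O-methyl fluorescein acyl ester substrate by the enzyme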
[4] = biological target: Bifunctional protein GlmU (Mycobacterium tuberculosis, UniProt P9WMN3); experiment: Inhibitors of Mycobacterial Glucosamine-1-phosphate acetyl transferase (GlmU). Secondary screen.; set-up: species or system Mycobacterium tuberculosis H37Rv
Fatty acid synthase [5] = biological target: T3, Fatty acid synthase; experiment: FAS thioesterase domain inhibitors, dose response, biochemical, kinetic fluorescence intensity (AID 624326); format: functional;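 note: rate of fluorescence rise from hydrolysis of a fluorogenic O-methyl fluorescein ester substrate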
[6] = biological target: Envelope glycoprotein gp160 (Human immunodeficiency virus 1, UniProt Q6QLK5); experiment: inhibitors of HIV fusion peptide binding, primary screen, biochemical, uHTS, fluorescence dequenching (AID 1986)
Aminopeptidase N = biological target: T4, Aminopeptidase N (Plasmodium falciparum FcB1/Columbia, UniProt O96935); experiment: P. falciparum M1AAP inhibitors, biochemical, fluorogenic H-Leu-NHMec substrate, 1536-well (AID 1445); set-up: species or system Plasmodium falciparum 3D7, 3D7
T4 sequence (O96935 whole entry): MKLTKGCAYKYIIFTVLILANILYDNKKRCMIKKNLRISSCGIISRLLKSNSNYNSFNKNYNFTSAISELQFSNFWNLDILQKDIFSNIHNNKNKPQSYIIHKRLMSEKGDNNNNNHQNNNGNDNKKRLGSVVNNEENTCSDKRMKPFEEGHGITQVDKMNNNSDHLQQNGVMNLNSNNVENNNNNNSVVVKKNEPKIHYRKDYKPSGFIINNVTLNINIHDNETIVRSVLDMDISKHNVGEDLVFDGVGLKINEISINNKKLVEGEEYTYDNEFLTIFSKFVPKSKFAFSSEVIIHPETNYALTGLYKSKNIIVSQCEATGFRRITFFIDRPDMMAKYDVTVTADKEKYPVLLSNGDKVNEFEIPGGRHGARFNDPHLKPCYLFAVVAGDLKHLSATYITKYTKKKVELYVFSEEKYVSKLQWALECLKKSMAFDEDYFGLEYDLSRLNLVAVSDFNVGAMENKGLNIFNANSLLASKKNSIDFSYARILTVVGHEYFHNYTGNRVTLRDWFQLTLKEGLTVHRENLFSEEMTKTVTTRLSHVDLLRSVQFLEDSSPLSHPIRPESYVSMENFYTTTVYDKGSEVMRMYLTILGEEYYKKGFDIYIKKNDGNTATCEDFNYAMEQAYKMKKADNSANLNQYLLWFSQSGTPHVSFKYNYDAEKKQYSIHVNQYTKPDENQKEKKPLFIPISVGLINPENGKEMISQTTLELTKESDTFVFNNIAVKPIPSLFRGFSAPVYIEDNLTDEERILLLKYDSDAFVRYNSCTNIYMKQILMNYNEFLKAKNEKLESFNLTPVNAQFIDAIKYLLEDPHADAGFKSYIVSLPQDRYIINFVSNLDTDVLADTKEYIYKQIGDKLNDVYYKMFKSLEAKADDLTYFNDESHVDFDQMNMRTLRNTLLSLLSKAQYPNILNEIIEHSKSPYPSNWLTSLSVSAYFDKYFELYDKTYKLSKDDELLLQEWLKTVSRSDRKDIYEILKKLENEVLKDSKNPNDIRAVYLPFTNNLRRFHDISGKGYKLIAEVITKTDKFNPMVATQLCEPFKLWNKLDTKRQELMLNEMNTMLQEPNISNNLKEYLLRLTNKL

Hexokinase = Hexokinase (Trypanosoma brucei, UniProt Q38C41); experiment: Confirmation assay for inhibitors of Trypanosoma brucei hexokinase 1-Analogue-first series. [Related pubchem assays (depositor defined):AID1430, AID1632, AID2516, AID2560, AID2579, AID2600, AID449725, AID492951]; format: functional
Hexokinase-1 = Hexokinase-1 (Homo sapiens, UniProt P19367); experiment: hexokinase 1 activators, dose response, selectivity assay for HKDC1 activator project, biochemical (AID 504762); format: functional
Hexokinase HKDC1 = biological target: T5, Hexokinase HKDC1 (Homo sapiens, UniProt Q2TB90); experiment: HKDC1 hexokinase inhibitors, dose response, biochemical, W721R variant (AID 504729); format: functional
T5 sequence (Q2TB90 whole entry): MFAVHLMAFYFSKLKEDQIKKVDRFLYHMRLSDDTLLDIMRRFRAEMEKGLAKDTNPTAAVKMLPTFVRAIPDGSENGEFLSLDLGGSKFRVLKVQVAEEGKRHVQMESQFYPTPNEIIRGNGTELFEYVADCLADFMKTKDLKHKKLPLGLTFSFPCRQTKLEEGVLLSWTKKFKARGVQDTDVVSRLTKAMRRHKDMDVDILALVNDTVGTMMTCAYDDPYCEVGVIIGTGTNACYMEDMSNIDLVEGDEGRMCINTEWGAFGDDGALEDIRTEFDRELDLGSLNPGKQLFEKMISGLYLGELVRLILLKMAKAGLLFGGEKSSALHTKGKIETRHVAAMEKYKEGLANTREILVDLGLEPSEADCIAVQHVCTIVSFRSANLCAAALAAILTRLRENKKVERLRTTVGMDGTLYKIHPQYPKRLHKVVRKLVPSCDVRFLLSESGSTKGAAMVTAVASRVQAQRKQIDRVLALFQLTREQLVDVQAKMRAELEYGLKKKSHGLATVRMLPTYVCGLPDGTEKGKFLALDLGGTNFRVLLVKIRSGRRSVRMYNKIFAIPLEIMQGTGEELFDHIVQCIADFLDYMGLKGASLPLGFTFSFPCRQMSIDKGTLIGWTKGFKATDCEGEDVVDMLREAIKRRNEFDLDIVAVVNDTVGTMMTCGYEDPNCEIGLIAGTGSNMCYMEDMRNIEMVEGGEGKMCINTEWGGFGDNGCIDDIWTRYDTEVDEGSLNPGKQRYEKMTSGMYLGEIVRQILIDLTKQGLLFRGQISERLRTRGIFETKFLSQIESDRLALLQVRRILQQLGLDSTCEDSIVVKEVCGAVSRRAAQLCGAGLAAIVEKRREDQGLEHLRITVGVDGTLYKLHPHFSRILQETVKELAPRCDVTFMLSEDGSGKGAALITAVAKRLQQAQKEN

Vero [7] = experiment: West Nile virus antiviral activity, cell-based, CPE readout (AID 1621); format: functional; conditions: Chlorocebus sabaeus
Vero [8] = experiment: West Nile virus CPE inhibition, SAR follow-up, cell-based, synthesized analogs (AID 2238); format: functional; conditions: Chlorocebus sabaeus
Vero [9] = experiment: Vero E6 cell cytotoxicity, SAR follow-up, cytotoxicity control for West Nile virus antiviral project, synthesized analogs (AID 2244); format: functional; conditions: Chlorocebus sabaeus
[10] = Luminescence Cell-Based Dose Retest to Confirm Inhibitors of Cancer Stem Cells. [Related pubchem assays (depositor defined):AID2717, AID2721]; format: functional; conditions: Homo sapiens
[11] = biological target: T6, Short transient receptor potential channel 4 (Mus musculus, UniProt Q9QUQ5); experiment: TRPC4 positive allosteric modulators, dose response, cell-based, HEK293 TRPC4/mu-opioid, Fluo-4 calcium, EC20 DAMGO (AID 434941); format: functional
T6 sequence (Q9QUQ5 whole entry): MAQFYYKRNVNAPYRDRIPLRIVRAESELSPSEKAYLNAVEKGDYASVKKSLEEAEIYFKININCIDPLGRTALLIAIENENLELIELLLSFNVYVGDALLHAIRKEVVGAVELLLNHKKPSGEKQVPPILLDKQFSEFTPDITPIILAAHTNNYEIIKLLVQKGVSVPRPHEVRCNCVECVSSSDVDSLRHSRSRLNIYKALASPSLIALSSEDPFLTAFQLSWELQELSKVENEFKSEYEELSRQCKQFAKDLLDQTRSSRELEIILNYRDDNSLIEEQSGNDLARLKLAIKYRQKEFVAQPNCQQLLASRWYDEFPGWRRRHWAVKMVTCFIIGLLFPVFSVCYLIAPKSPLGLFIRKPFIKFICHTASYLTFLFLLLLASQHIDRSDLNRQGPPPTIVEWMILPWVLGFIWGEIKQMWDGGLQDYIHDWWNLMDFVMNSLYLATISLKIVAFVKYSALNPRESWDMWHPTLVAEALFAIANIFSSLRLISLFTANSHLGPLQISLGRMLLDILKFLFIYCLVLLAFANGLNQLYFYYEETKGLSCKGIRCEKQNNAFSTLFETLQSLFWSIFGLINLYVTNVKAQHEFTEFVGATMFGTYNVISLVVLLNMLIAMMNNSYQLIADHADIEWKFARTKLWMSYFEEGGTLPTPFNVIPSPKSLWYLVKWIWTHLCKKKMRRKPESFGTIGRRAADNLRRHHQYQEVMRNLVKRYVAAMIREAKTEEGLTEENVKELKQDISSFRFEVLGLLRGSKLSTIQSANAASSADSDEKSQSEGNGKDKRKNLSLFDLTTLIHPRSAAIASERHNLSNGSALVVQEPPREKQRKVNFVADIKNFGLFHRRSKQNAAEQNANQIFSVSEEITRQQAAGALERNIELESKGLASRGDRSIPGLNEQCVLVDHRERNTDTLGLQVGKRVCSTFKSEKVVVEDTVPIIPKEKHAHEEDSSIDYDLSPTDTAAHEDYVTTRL
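Throughout, for AC50: cells exposed to compound for roughly 70 hours or longer before luminescence read.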

T3 sequence (P49327 whole entry, the tested form may be a part): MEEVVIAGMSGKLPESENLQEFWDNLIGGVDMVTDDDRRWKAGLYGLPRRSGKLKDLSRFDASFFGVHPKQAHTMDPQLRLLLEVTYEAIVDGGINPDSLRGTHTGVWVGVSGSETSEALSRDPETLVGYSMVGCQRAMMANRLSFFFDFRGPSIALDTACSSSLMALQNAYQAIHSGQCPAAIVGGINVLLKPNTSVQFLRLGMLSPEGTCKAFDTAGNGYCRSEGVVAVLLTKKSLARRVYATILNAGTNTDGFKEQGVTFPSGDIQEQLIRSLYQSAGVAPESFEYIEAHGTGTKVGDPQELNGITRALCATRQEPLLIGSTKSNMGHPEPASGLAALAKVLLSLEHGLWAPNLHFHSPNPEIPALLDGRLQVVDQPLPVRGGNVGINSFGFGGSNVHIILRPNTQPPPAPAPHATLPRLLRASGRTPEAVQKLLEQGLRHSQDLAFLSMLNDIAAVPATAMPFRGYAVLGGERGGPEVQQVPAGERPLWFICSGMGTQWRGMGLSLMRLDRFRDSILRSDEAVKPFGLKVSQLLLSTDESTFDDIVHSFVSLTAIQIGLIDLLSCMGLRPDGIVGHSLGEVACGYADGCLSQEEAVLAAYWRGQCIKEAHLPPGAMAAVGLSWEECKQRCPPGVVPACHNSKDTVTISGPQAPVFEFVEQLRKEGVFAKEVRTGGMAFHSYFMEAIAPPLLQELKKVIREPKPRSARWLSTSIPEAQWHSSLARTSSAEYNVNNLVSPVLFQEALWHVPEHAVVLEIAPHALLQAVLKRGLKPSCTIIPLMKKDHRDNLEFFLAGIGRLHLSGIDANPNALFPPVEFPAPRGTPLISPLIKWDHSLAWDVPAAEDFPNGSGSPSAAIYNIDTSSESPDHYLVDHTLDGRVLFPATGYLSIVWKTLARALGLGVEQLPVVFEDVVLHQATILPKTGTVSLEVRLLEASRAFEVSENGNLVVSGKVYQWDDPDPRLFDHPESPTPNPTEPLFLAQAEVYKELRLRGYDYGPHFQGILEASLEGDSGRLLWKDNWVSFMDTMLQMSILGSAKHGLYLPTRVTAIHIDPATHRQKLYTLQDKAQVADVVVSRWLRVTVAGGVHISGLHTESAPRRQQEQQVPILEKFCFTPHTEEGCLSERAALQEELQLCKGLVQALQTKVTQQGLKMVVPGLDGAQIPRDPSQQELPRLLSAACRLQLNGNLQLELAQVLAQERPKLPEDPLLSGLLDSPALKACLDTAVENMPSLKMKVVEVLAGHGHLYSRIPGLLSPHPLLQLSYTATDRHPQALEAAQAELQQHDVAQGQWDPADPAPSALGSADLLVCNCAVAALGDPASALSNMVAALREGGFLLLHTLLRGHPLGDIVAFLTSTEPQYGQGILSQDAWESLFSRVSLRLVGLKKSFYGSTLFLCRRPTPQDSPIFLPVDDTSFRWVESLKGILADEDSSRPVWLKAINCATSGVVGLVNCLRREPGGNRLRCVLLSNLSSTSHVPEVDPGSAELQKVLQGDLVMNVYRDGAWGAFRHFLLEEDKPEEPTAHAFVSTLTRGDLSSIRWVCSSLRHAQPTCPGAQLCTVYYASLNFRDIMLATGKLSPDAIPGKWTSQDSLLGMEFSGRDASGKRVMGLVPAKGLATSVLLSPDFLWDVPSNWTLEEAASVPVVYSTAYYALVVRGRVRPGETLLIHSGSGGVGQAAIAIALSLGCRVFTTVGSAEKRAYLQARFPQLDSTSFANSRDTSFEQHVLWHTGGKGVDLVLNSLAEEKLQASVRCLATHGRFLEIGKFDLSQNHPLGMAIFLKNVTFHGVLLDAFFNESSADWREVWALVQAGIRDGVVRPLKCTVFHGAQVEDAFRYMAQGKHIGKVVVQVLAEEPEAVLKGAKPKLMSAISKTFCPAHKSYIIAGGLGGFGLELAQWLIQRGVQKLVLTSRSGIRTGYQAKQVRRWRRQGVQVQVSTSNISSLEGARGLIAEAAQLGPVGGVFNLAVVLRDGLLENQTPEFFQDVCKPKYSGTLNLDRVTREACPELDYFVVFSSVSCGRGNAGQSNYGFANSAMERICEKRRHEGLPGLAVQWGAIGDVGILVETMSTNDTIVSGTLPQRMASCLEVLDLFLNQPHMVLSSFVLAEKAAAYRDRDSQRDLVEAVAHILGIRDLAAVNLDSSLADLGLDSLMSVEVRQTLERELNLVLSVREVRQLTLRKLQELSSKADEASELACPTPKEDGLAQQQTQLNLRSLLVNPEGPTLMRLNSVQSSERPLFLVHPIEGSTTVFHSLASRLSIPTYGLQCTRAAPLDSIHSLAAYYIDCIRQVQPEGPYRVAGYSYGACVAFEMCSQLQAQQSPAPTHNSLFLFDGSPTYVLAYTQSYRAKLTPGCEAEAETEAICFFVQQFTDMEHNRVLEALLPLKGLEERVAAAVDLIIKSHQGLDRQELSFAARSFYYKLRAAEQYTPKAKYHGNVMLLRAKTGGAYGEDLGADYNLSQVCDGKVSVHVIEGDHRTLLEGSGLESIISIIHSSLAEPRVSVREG
Sequence of Hexokinase-1 (P19367 whole entry): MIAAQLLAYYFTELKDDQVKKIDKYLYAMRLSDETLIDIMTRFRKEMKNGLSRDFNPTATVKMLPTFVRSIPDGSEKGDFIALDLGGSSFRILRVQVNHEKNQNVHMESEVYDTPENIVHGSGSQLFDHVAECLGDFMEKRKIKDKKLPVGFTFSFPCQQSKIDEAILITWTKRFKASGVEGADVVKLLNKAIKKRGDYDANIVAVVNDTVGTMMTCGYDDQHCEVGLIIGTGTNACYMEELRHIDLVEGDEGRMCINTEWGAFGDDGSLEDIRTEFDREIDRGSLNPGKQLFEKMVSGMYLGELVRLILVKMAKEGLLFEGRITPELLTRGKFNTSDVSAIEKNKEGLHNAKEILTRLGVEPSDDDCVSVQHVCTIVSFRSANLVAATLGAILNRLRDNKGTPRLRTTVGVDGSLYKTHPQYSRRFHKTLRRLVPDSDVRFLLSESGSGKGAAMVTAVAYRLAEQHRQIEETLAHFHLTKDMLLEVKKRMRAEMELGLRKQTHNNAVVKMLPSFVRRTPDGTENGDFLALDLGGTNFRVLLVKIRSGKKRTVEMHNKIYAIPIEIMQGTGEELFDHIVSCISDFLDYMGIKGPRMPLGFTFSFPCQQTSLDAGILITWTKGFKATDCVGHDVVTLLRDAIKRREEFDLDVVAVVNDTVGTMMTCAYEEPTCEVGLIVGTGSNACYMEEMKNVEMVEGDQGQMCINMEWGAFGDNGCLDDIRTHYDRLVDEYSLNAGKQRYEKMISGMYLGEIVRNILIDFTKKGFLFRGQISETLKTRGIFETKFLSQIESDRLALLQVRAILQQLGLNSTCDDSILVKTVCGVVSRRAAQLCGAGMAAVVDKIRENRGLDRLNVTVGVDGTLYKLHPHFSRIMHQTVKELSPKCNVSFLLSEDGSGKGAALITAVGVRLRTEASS
Sequence of Envelope glycoprotein gp160 (Q6QLK5 whole entry, the tested form may be a part): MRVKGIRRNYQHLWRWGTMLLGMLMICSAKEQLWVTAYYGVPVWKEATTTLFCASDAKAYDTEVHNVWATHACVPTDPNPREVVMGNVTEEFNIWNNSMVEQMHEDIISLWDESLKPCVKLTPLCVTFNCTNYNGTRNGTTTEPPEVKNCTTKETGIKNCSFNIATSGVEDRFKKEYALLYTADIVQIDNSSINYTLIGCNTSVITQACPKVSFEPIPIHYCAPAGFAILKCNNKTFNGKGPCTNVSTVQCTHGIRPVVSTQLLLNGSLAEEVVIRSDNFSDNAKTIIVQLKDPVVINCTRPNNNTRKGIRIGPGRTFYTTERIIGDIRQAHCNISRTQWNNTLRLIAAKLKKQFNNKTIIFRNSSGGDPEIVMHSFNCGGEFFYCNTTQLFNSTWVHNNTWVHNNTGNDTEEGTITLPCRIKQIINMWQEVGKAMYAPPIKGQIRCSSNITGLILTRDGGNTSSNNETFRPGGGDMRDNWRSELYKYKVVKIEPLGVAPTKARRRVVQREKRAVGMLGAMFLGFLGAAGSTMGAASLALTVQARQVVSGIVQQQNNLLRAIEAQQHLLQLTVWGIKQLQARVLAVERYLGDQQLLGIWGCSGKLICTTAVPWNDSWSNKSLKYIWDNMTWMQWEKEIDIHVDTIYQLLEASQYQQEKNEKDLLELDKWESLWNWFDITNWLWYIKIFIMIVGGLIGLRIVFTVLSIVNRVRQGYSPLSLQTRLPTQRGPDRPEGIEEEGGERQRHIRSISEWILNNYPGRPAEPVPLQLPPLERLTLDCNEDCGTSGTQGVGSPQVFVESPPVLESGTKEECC
Sequence of Bifunctional protein GlmU (P9WMN3 whole entry, the tested form may be a part): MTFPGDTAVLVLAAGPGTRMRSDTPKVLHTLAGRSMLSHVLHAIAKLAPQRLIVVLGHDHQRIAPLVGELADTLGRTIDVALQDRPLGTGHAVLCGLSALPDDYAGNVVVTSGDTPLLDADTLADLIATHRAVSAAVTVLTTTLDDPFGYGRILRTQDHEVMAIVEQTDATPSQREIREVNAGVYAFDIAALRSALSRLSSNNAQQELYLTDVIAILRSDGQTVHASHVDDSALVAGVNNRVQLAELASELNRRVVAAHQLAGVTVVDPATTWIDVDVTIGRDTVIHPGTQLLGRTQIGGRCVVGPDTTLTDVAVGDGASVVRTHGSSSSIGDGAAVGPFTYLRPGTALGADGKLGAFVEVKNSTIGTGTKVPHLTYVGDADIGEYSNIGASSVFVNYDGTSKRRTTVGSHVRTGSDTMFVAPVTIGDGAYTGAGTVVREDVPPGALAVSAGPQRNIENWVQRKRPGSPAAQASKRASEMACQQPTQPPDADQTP

O=c1c(C(c2ccc([N+](=O)[O-])cc2)c2c(O)oc3ccccc3c2=O)c(O)oc2ccccc12
EC50 (Streptokinase A): 13.4 µM (active) | EC50 [1]: 8.09 µM (active) | EC50 (Streptococcus): 102 µM (active) | IC50 [2]: 7.83 µM (active) | IC50 (Fatty acid synthase [3]): 4.65 µM (active) | IC50 [4]: 122 µM (active) | IC50 (Fatty acid synthase [5]): 3.67 µM (active) | IC50 [6]: 13.8 µM (active) | IC50 (Aminopeptidase N): 34 µM (active)

CC(C)c1ccc(C(=O)Nc2cc(Cl)ccc2C(=O)O)cc1
IC50 (Hexokinase): 2.89 µM (active)

O=C(CN(C(=O)CCC(=O)Nc1ccccn1)c1ccc2c(c1)OCO2)NCc1ccc(F)cc1
EC50 (Hexokinase-1): > 80 µM (inactive) | IC50 (Hexokinase HKDC1): > 80 µM (inactive)

CCN(CC)CCCN=C(S)N1CCN(c2nc(-c3ccccc3)cs2)CC1
IC50 (Vero [7]): > 100 µM (active) | IC50 (Vero [8]): 17.3 µM (active) | CC50 (Vero [9]): 15.3 µM (active) | AC50 [10]: 3.77 µM (active)

CN(C)CCOc1cc(Cl)cc(Cl)c1
EC50 [11]: 670 nM (active)
